Literature values as cited in patent publication US11992485B2, “Analgesic formulations and methods for reduced postoperative nausea and vomiting and enhanced postoperative pain relief” (Hutchison Health, LLC, priority 2013, dated 2024).
Structures can show the parent of a compound that is named as a salt.

Tests used:
[1] = tested on: Lumbar Laminectomy patients
[2] = Table 2: 12 hr., Rahmanian et al.

**Q.** What does the source list for CCCCN1CCCCC1C(=O)Nc1c(C)cccc1C (stereo not drawn) [Bupivacaine Hydrochloride]?
**A.** % of patients with NO PONV (50 patients; Table 1: first 24-48 hours post-surgery, Patel et al.): 72%; patients who developed PONV (50 patients; intrathecal, Patel): 28%; decrease of postoperative surgical pain compared with 30 ml Normal Saline ([1]; 30 mL of 0.25%, infiltrative field block at surgical closure, Rahmanian): no more effective than 30 ml Normal Saline; Patients with MILD PAIN [1, 2]: 0%; Patients with NO PAIN [1, 2]: 0%; VAS scores at rest compared with control Normal Saline group ([1]; subjective linear VAS, Rahmanian): higher
